{"source": "patent US6828334B2", "about": "“Fenofibrate-cyclodextrin inclusion complexes and their pharmaceutical composition” (USV Limited, priority 2002, dated 2004)", "assay": "in-vitro dissolution, rotating blade method at 75 rpm according to USP24", "type": "physicochemical", "data": [{"smiles": "CC(C)OC(=O)C(C)(C)Oc1ccc(C(=O)c2ccc(Cl)cc2)cc1", "note": "[fenofibrate, 2-[4-(4-chlorobenzoyl)phenoxy]-2-methyl propionate]", "values": [{"measurement": "% release of fenofibrate", "setting": "water with 0.025 M sodium lauryl sulfate, 1200 ml, 5 min", "value": "8-10%"}, {"measurement": "% release of fenofibrate", "setting": "water with 0.025 M sodium lauryl sulfate, 1200 ml, 10 min", "value": "16-22%"}, {"measurement": "% release of fenofibrate", "setting": "water with 0.025 M sodium lauryl sulfate, 1200 ml, 20 min", "value": "24-30%"}, {"measurement": "% release of fenofibrate", "setting": "water with 2% by weight polysorbate-80, 1200 ml, 5 min", "value": "4-8%"}, {"measurement": "% release of fenofibrate", "setting": "water with 2% by weight polysorbate-80, 1200 ml, 10 min", "value": "19-22%"}, {"measurement": "% release of fenofibrate", "setting": "water with 2% by weight polysorbate-80, 1200 ml, 20 min", "value": "30-32%"}, {"measurement": "% release of fenofibrate", "setting": "water with 2% by weight polysorbate-80, 1200 ml, 30 min", "value": "36-38%"}]}]}
